In the experiment the test system is COVID-19 patients with severe pneumonia. In words: Phase 2 clinical study of Reparixin plus standard of care in COVID-19 patients with severe pneumonia. Type of experiment: in vivo, human. The following applies: for Composite endpoint, first occurrence (% patients) / Composite endpoint, first occurrence (n patients): oral tablets 1200 mg TID plus standard of care. The source says: A phase 2 clinical study has been conducted to assess efficacy and safety of Reparixin in COVID-19 patients with severe pneumonia.
The patients participating to the trial satisfied the following inclusion criteria: • a) at least one of the following: • respiratory distress, RR≥30 breaths/min without oxygen; • Partial arterial oxygen pressure (PaO2)/Fraction of inspiration O2 (FiO2)>100<300 mmHg (1 mmHg=0.133 kPa). • b) chest imaging confirming lung involvement and inflammation. • c) inflammatory status as documented by at least one of the following: Lactate dehydrogenase (LDH)>normal range, C-reactive protein (CRP)≥100 mg/L or IL-6≥40 pg/mL, serum ferritin ≥900 ng/mL, XDP >20 mcg/mL.
Fourteen patients received the standard of care treatment only (Control group).
Thirty-two patients received Reparixin oral tablets 1200 mg TID in addition to the standard of care treatment (Reparixin group) for a maximum of 21 days.
In both groups, where necessary due to the presence of concomitant pathologies (diabetes, hypertension, cancer etc. . . ), the patients also continued to receive specific treatments for these.
The first occurrence of the composite primary endpoint (at least one of the following events: death, supplemental oxygen requirement, invasive mechanical ventilation use, admission to ICU, and use of a rescue medication for any reason) was evaluated in all the patients and the data obtained are shown in Table 2 below.
The data collected in the clinical trial were analyzed by means of the Kaplan-Meier methodology and the log-rank test was used to test for differences between treatment groups. The Kaplan-Meier method is a well-established method to analyse the patterns of events over time to estimate the probability of being free of event. The form of the estimated “survival curves” is a step function, with steps down occurring at those time points where there are events. As patients have events or are censored (patients who exit the analyses for other reasons than events) the number of patients remaining evaluable in the trial in each of the treatment groups is diminishing. The probabilities of being free of event are, as a consequence, estimated from fewer and fewer patients as time progresses. To give information in relation to this, the number of patients at risk at various time points are provided: these are the numbers of patients still at risk of having their first occurrence of the composite endpoint.

Where [1] appears, read: Reparixin plus standard of care vs standard of care only.

The values below come from US12636268B2, “CXCL8 inhibitors for use in the treatment of COVID-19” (Dompe' Farmaceutici SPA, priority 2020, dated 2026).

`CC(C)Cc1ccc([C@@H](C)C(=O)NS(C)(=O)=O)cc1` [Reparixin, R-(-)-2-(4-isobutylphenyl)propionyl methansulfonamide]: under “Day 1, 32 evaluable patients”, the “Composite endpoint, first occurrence (% patients)” value is 9.4%. In addition, the “Composite endpoint, first occurrence (n patients)” value (Day 1, 32 evaluable patients, composite = death, supplemental oxygen requirement, invasive mechanical ventilation use, admission to ICU, or rescue medication) amounted to 3. For the setting “Day 2, 27 evaluable patients”, the “Composite endpoint, first occurrence (% patients)” value amounted to 7.4% and the “Composite endpoint, first occurrence (n patients)” value worked out at 2. The “Time of recovery of patients” value (Reparixin group compared to the Control group) was “significantly reduced”. Where the note is “Reparixin group vs Control group (standard of care only), log-rank test p-value 0.0031”, the “Freedom from composite event over time (Kaplan-Meier, FIG. 1)” value is reported as “statistically significant higher freedom from event”. Besides, for the setting “Reparixin group vs Control group, shown by incidence of the composite endpoints”, the “Progression to more severe respiratory disease” value is on record as “prevents the progression to more severe respiratory disease”. Moreover, under setting [1], the “Days of oxygen use” value is “fewer days of oxygen use” and the “Duration of mechanical ventilation” value is “shorter subsequent duration of mechanical ventilation”. Under “patients in the Reparixin group”, the Respiratory function entry is reported as “improved respiratory function”.
